How the values were obtained:
[1] = test system: MCF-7 cells; test: MTS cytotoxicity of paclitaxel treatments in drug-sensitive cells; format: cell-based; conditions: paclitaxel 100 nM in solution or equivalent in nanoparticles; compared to untreated cells
Description: (§1) Drug sensitive (MCF-7) and drug-resistant (NCl/ADR-RES) cells were plated in 96-well plates at a density of 5000 cells/well/0.1 mL. Cells were then treated with paclitaxel (Pac) in solution (100 nM) or equivalent in nanoparticles (NP). […] Untreated cells and cells treated with empty nanoparticles were used as controls. Cytotoxicity was followed using a standard MTS assay (see Methods). […] Data as mean±SD, n=6 wells. * P<0.05.
The inventors initially investigated the efficacy of paclitaxel encapsulated in nanoparticles in drug-sensitive MCF-7 cells.

[2] = test system: NCl/ADR-RES cells; test: MTS cytotoxicity in drug-resistant, P-gp overexpressing cells; format: cell-based; conditions: paclitaxel 100 nM in solution or in nanoparticles, no verapamil
Description: as §1
NCl/ADR-RES cells were plated in 96-well plates at a density of 5000 cells/well/0.1 mL. Cells were then treated with paclitaxel (Pac, 100 nM) in nanoparticles (NP). […] Untreated cells were used as controls. Cytotoxicity was followed as a function of time using a standard MTS assay. The medium was changed on day 2 and every other day thereafter, and no further dose of drug was added.
Drug-resistant (NCl/ADR-RES) cells were plated in 96-well plates at a density of 5000 cells/well/0.1 mL. Cells were then treated with dual-agent nanoparticles releasing 0.3 ng/day/8 μg siRNA and 7 ng/day/8 μg paclitaxel. Cells treated with non-targeted (scrambled) siRNA and untreated cells were used as controls. Cytotoxicity was followed using a standard MTS assay. The medium was changed on day 2 and every other day thereafter, and no further dose of drug was added. Data as mean±SD, n=6 wells. * P<0.05 compared to controls. […]

[3] = test system: MCF-7 xenografts; test: tumor growth and survival after single-dose paclitaxel treatment; format: in vivo; conditions: 400 μg paclitaxel/animal, nude mice
Excerpt: Effect of a single-dose paclitaxel treatment on tumor growth was investigated in nude mice bearing MCF-7 xenografts.

[4] = test system: NCl/ADR-RES cells; test: nanoparticle uptake/retention and paclitaxel accumulation in cells (HPLC); format: cell-based; conditions: inhibition of P-gp by verapamil
Description: NCl/ADR-RES cells were plated in 24-well plates at a density of 50,000 cells/well/1 mL. […] The medium was changed on day 2 and every other day thereafter, and no further dose of drug was added. Cells were harvested at different time intervals, and lysed using cell culture lysis reagent (Promega).
In order to verify that differences in drug accumulation are not due to differences in nanoparticle uptake/retention in cells, the inventors labeled nanoparticles with 6-coumarin, and followed the cell uptake and retention of nanoparticles and paclitaxel in NCl/ADR-RES cells.

[5] = test system: vascular smooth muscle cells; test: MTS cytotoxicity of dexamethasone formulations; format: cell-based; conditions: nanoparticles 600 μg/mL or drug solution 25 μg/mL, single dose
Description: Nanoparticle formulations with different drug release rates were formulated by emulsion solvent evaporation technique. […] Data represented as mean±SD, n=3. The two formulations were investigated for cytotoxicity in vascular smooth muscle cells. Cells were plated in 96-well plates at a density of 5000 cells/well/0.1 mL. A nanoparticle suspension prepared in regular serum-containing growth medium (600 μg/mL, 0.1 mL) was added to each well. Drug solution in growth medium (25 μg/mL) was also added to some of the wells. Untreated cells were used as controls. Cytotoxicity was determined using a standard MTS assay. The medium was changed on day 2 and every other day thereafter, and no further dose of drug was added. Data as mean±SD, n=6. […] Data represented as mean±SEM, n=3. Cells were plated at 100,000 cells/well/2 ml in 6-well plates. Drug encapsulated in nanoparticles (600 μg of nanoparticles/ml, 2 ml) or in solution (25 μg/ml, 2 ml) was added to each well. Medium was changed on day 2 and every other day thereafter, and no further dose of the drug was added.

## CC(=O)O[C@H]1C(=O)[C@@]2(C)[C@H]([C@H](OC(=O)c3ccccc3)[C@]3(O)C[C@H](OC(=O)[C@H](O)[C@@H](NC(=O)c4ccccc4)c4ccccc4)C(C)=C1C3(C)C)[C@]1(OC(C)=O)CO[C@@H]1C[C@@H]2O [paclitaxel]
[1]
  inhibition of cell proliferation: marginal but significant (P<0.05) inhibition of cell proliferation
[2]
  effect on the viability of cells: no significant effect on the viability of cells
[3]
  effect on tumor growth: only marginally effective

## COc1ccc(CCN(C)CCCC(C#N)(c2ccc(OC)c(OC)c2)C(C)C)cc1OC (stereo not drawn) [verapamil]
[4]
  effect on uptake or retention of nanoparticles: did not significantly increase the uptake or retention of nanoparticles

## C[C@@H]1C[C@H]2[C@@H]3CCC4=CC(=O)C=C[C@]4(C)[C@@]3(F)[C@@H](O)C[C@]2(C)[C@@]1(O)C(=O)CO [dexamethasone]
[5]
  cytotoxicity / inhibition of cell proliferation: transient cytotoxicity
  duration of cytotoxicity: up to 5 days

Source: patent US20100015050A1, “PEG AND TARGETING LIGANDS ON NANOPARTICLE SURFACE” (WAYNE STATE UNIVERSITY, priority 2006, published 2010)
